In patent US11840686B2, “Modulation of prekallikrein (PKK) expression” (Ionis Pharmaceuticals, Inc., priority 2013, dated 2023):
Strand notation (5' to 3'): a small letter for the sugar, then the base; units joined by * are phosphorothioate-linked, units joined directly phosphodiester-linked; [ ] holds rarer units or linkages, { } end groups; capitals alone tell only the bases. e = 2'-O-(2-methoxyethyl) (MOE); [5mC] = 5-methylcytosine; d = 2'-deoxy (DNA)

Legend:
human PKK mRNA [1] = test: Antisense inhibition of human PKK mRNA in HepaRG cells, 5,000 nM (Example 2); format: cell-based
Procedure, shortened: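 Chimeric MOE gapmers with full phosphorothioate backbones were tested once at 5,000 nM in electroporated HepaRG cells. After about 24 hours, quantitative PCR measured PKK mRNA relative to untreated control cells.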

human PKK mRNA [2] = test: Dose-dependent antisense inhibition of human PKK in HepaRG cells, 0.19-5.00 uM (Example 5); format: cell-based; details: HepaRG cells; for percent inhibition of PKK at 0.19 μM / percent inhibition of PKK at 0.56 μM / percent inhibition of PKK at 1.67 μM / percent inhibition of PKK at 5.00 μM: electroporation, approximately 16 hours; for percent inhibition of PKK mRNA, 0.19 μM: 0.19 μM antisense oligonucleotide; for percent inhibition of PKK mRNA, 0.56 μM: 0.56 μM antisense oligonucleotide; for percent inhibition of PKK mRNA, 1.67 μM: 1.67 μM antisense oligonucleotide; for percent inhibition of PKK mRNA, 5.00 μM: 5.00 μM antisense oligonucleotide
Procedure, shortened: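 PKK mRNA knockdown was measured by real-time PCR (primer probe set RTS3454) about 16 h after electroporating 20,000 HepaRG cells per well with oligonucleotide at four doses from 0.19 to 5.00 μM. Levels were adjusted to RIBOGREEN-measured total RNA, and IC50 values were calculated.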

[3] = human PKK mRNA in HepaRG cells, 5-10-5 gapmers, Table 14
[4] = 4 point dose response, Table 39
[5] = 4 point dose response, Table 40
[6] = 4 point dose response, Table 36
[7] = Table 7, HepaRG cells, electroporation with 5,000 nM antisense oligonucleotide, approx. 24 hours, PKK mRNA by RT-PCR (RTS3454), relative to untreated control cells

546853 (eA*e[5mC]*eA*eG*eT*dA*dT*d[5mC]*dA*d[5mC]*dT*dG*dT*d[5mC]*d[5mC]*eT*eA*eT*eA*eT; antisense) [compound 546853]
% inhibition (human PKK mRNA [1]; [3]): 86% | percent inhibition of PKK at 0.19 μM (human PKK mRNA [2]; Table 39): 47% | percent inhibition of PKK at 0.56 μM (human PKK mRNA [2]; Table 39): 64% | percent inhibition of PKK at 1.67 μM (human PKK mRNA [2]; Table 39): 84% | IC50 (human PKK mRNA [2]; [4]): 200 nM | percent inhibition of PKK mRNA, 0.19 μM (human PKK mRNA [2]): 4% | percent inhibition of PKK mRNA, 0.56 μM (human PKK mRNA [2]): 49% | percent inhibition of PKK mRNA, 1.67 μM (human PKK mRNA [2]): 74% | percent inhibition of PKK mRNA, 5.00 μM (human PKK mRNA [2]): 92% | IC50 (human PKK mRNA [2]; 0.19-5.00 μM): 800 nM

548756 (antisense eG*eT*eA*eT*d[5mC]*dA*d[5mC]*dT*dG*dT*dA*d[5mC]*dT*eA*eG*eT*eT) [compound 548756]
% inhibition (human PKK mRNA [1]; human PKK mRNA, HepaRG cells, 5,000 nM antisense oligonucleotide, Table 18): 81% | percent inhibition of PKK at 0.19 μM (human PKK mRNA [2]; Table 40): 0% | percent inhibition of PKK at 0.56 μM (human PKK mRNA [2]; Table 40): 4% | percent inhibition of PKK at 1.67 μM (human PKK mRNA [2]; Table 40): 16% | percent inhibition of PKK at 5.00 μM (human PKK mRNA [2]; Table 40): 86% | IC50 (human PKK mRNA [2]; [5]): > 5000 nM

547277 (antisense e[5mC]*eA*e[5mC]*eA*eA*dT*dT*dG*d[5mC]*dT*dT*d[5mC]*dT*dT*dG*eG*eA*eG*eG*eT) [compound 547277]
% inhibition (human PKK mRNA [1]; HepaRG cells, electroporation with 5,000 nM antisense oligonucleotide, approximately 24 hours, PKK mRNA by RT-PCR (RTS3454), relative to untreated control cells, Table 5 experiment): 75% | percent inhibition of PKK at 0.19 μM (human PKK mRNA [2]; Table 40): 2% | percent inhibition of PKK at 0.56 μM (human PKK mRNA [2]; Table 40): 32% | percent inhibition of PKK at 1.67 μM (human PKK mRNA [2]; Table 40): 34% | percent inhibition of PKK at 5.00 μM (human PKK mRNA [2]; Table 40): 62% | IC50 (human PKK mRNA [2]; [5]): 2800 nM

547618 (antisense eA*e[5mC]*eT*eG*eT*d[5mC]*d[5mC]*dT*dA*dT*dA*dT*d[5mC]*dA*d[5mC]*eT*eG*eT*eA*e[5mC]) [compound 547618]
% inhibition (human PKK mRNA [1]; [3]): 87% | percent inhibition of PKK at 0.19 μM (human PKK mRNA [2]; Table 37): 0% | percent inhibition of PKK at 0.56 μM (human PKK mRNA [2]; Table 37): 0% | percent inhibition of PKK at 1.67 μM (human PKK mRNA [2]; Table 37): 73% | percent inhibition of PKK at 5.00 μM (human PKK mRNA [2]; Table 37): 98% | IC50 (human PKK mRNA [2]; 4 point dose response, Table 37): 1300 nM

547636 (eG*eT*eA*eT*e[5mC]*dA*d[5mC]*dT*dG*dT*dA*d[5mC]*dT*dA*dG*eT*eT*eT*eT*e[5mC]; antisense) [compound 547636]
% inhibition (human PKK mRNA [1]; human PKK mRNA, HepaRG cells, 5-10-5 motif oligonucleotides targeting SEQ ID NO: 1 and 10): 86% | percent inhibition of PKK at 0.19 μM (human PKK mRNA [2]; Table 38): 0% | percent inhibition of PKK at 0.56 μM (human PKK mRNA [2]; Table 38): 24% | percent inhibition of PKK at 1.67 μM (human PKK mRNA [2]; Table 38): 79% | percent inhibition of PKK at 5.00 μM (human PKK mRNA [2]; Table 38): 94% | IC50 (human PKK mRNA [2]; 4 point dose response, Table 38): 1100 nM

546753 (e[5mC]*eT*eG*eG*e[5mC]*dT*d[5mC]*dA*d[5mC]*dT*dA*dT*dA*dG*dG*e[5mC]*e[5mC]*e[5mC]*e[5mC]*eA; antisense) [compound 546753]
% inhibition (human PKK mRNA [1]; Table 13, human PKK mRNA in HepaRG cells, 5-10-5 gapmers): 91% | percent inhibition of PKK at 0.19 μM (human PKK mRNA [2]; Table 36): 28% | percent inhibition of PKK at 0.56 μM (human PKK mRNA [2]; Table 36): 47% | percent inhibition of PKK at 1.67 μM (human PKK mRNA [2]; Table 36): 83% | percent inhibition of PKK at 5.00 μM (human PKK mRNA [2]; Table 36): 96% | IC50 (human PKK mRNA [2]; [6]): 500 nM | percent inhibition of PKK mRNA, 0.19 μM (human PKK mRNA [2]): 17% | percent inhibition of PKK mRNA, 0.56 μM (human PKK mRNA [2]): 31% | percent inhibition of PKK mRNA, 1.67 μM (human PKK mRNA [2]): 70% | percent inhibition of PKK mRNA, 5.00 μM (human PKK mRNA [2]): 91% | IC50 (human PKK mRNA [2]; 0.19-5.00 μM): 900 nM

546248 (e[5mC]*e[5mC]*eT*e[5mC]*e[5mC]*dA*dA*dA*dG*dT*d[5mC]*dA*dA*d[5mC]*dT*e[5mC]*e[5mC]*e[5mC]*eG*eG; antisense) [compound 546248]
% inhibition (human PKK mRNA [1]; [7]): 86% | percent inhibition of PKK at 0.19 μM (human PKK mRNA [2]; Table 39): 25% | percent inhibition of PKK at 0.56 μM (human PKK mRNA [2]; Table 39): 66% | percent inhibition of PKK at 1.67 μM (human PKK mRNA [2]; Table 39): 87% | percent inhibition of PKK at 5.00 μM (human PKK mRNA [2]; Table 39): 93% | IC50 (human PKK mRNA [2]; [4]): 400 nM | percent inhibition of PKK mRNA, 0.19 μM (human PKK mRNA [2]): 0% | percent inhibition of PKK mRNA, 0.56 μM (human PKK mRNA [2]): 59% | percent inhibition of PKK mRNA, 1.67 μM (human PKK mRNA [2]): 73% | percent inhibition of PKK mRNA, 5.00 μM (human PKK mRNA [2]): 89% | IC50 (human PKK mRNA [2]; 0.19-5.00 μM): 800 nM

546247 (e[5mC]*e[5mC]*eA*eA*eA*dG*dT*d[5mC]*dA*dA*d[5mC]*dT*d[5mC]*d[5mC]*d[5mC]*eG*eG*eG*eT*eA; antisense) [compound 546247]
% inhibition (human PKK mRNA [1]; [7]): 90% | percent inhibition of PKK at 0.19 μM (human PKK mRNA [2]; Table 36): 0% | percent inhibition of PKK at 0.56 μM (human PKK mRNA [2]; Table 36): 29% | percent inhibition of PKK at 1.67 μM (human PKK mRNA [2]; Table 36): 71% | percent inhibition of PKK at 5.00 μM (human PKK mRNA [2]; Table 36): 88% | IC50 (human PKK mRNA [2]; [6]): 1100 nM
